# Measured values: US9856268B2, “Lactam kinase inhibitors” (G1 Therapeutics, Inc., priority 2012, dated 2018)
# Target: JNK2 (Homo sapiens, UniProt P45984)
# Experiment: Kinase electrophoretic mobility shift assay, JNK2
# Format: biochemical
# Settings: compounds tested at 10 μM, average of n = 2, ATP at apparent Km; read-out: JNK2 activity (percent inhibition)
# Protocol: (§1) Kinase activity is measured in vitro using electrophoretic mobility shift assay. The kinase reactions are assembled in 384 well plates in total volume of 25 μL. The reactions comprise: purified recombinant kinase enzyme, test compound, ATP (at apparent Km for each kinase), and fluorescently labeled peptide substrate. The reaction buffer composed of: 100 mM HEPES, pH7.5; 5 mM MgCl2; 1 mM DTT; 0.1% bovine serum albumin; 0.01% Triton X-100, and 1% DMSO (from compound). The reactions were incubated at room temperature for indicated time and quenched by addition of 45 μL of termination buffer (100 mM HEPES pH7.5; 0.01% Triton X-100; 30 mM EDTA). Substrate and product peptides in each sample were electrophoretically separated and detected using 12 channel LabChip3000® microfluidic capillary electrophoresis instrument (Caliper Life Sciences). The change in the relative fluorescence intensities of substrate and product peaks (reflecting enzyme activity) was measured. Capillary electrophoregramms were analyzed using HTS Well Analyzer software (Caliper Life Sciences). The kinase activity in each sample was determined as “product to sum” ratio (PSR):P/(S+P), where P is the peak height of the product peptide and S is the peak height of the substrate peptide. Negative control samples (0%-inhibition in the absence of inhibitor) and positive control samples (100%-inhibition, in the presence of 20 mM EDTA) were assembled in replicates of four and were used to calculate %-inhibition values for each compound at each concentration. Percent inhibition (Pinh) was determined using following equation: Pinh=(PSR0%−PSRinh)/(PSR0%−PSR100%)*100, where PSRinh is the product-sum ratio in the presence of inhibitor, PSR0% is the average product-sum ration in the absence of inhibitor and PSR100% is the average product-sum ratio in 100%-inhibition control samples. The IC50 values of reference inhibitors were determined by fitting the inhibition curves by a 4 parameter sigmoid dose-response model using XLfit 4 software (IDBS).
# JNK2, sequence (P45984 whole entry, species assumed): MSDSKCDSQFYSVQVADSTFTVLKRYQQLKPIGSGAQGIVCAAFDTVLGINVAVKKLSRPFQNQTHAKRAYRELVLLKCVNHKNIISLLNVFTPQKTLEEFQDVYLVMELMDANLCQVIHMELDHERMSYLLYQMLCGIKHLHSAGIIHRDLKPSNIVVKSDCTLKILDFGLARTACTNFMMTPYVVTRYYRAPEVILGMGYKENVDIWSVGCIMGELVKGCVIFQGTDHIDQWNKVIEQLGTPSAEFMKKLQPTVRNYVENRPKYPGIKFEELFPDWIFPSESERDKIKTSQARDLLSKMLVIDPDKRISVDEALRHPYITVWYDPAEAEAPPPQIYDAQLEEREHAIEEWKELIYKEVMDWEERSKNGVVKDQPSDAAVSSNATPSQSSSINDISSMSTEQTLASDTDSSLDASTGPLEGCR
row,inhibition at 10 µM,SMILES
1,< 50%,Cc1ccccc1-c1c2n(c3nc(Nc4ccc(N5CCOCC5)cc4)ncc13)CCNC2=O [Compd 1]
2,71 to 90%,Cc1ccccc1-c1c2n(c3nc(N[C@H]4CC[C@H](O)CC4)ncc13)CCNC2=O [Compd 2]
3,> 90%,O=C1NCCn2c1cc1cnc(N[C@H]3CC[C@H](O)CC3)nc12 [Compd 3]
4,> 90%,CC1(C)CNC(=O)c2cc3cnc(N[C@H]4CC[C@H](O)CC4)nc3n21 [Compd 4]

# Target: T1, Aurora -A (Homo sapiens, UniProt O14965)
# T1 sequence (O14965 1-403): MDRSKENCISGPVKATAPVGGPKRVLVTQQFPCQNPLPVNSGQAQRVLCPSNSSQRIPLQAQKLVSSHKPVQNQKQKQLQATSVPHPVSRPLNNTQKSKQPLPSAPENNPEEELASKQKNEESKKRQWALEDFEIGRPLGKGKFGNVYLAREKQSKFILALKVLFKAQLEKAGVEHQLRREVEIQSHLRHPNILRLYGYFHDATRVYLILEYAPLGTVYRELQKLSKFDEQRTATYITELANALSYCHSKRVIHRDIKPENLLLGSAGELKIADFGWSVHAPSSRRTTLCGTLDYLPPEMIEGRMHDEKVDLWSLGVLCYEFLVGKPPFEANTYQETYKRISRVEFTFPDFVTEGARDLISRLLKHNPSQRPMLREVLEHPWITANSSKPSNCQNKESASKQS
# Experiment: Kinase electrophoretic mobility shift assay, Aurora -A
# Format: biochemical
# Settings: compounds tested at 10 μM, average of n = 2, ATP at apparent Km; read-out: Aurora -A activity (percent inhibition)
# Protocol: as §1
row,inhibition at 10 µM,SMILES
1,< 50%,Cc1ccccc1-c1c2n(c3nc(Nc4ccc(N5CCOCC5)cc4)ncc13)CCNC2=O [Compd 1]
2,< 50%,Cc1ccccc1-c1c2n(c3nc(N[C@H]4CC[C@H](O)CC4)ncc13)CCNC2=O [Compd 2]
3,< 50%,O=C1NCCn2c1cc1cnc(N[C@H]3CC[C@H](O)CC3)nc12 [Compd 3]
4,50 to 70%,CC1(C)CNC(=O)c2cc3cnc(N[C@H]4CC[C@H](O)CC4)nc3n21 [Compd 4]

# Target: GSK-3 beta (Homo sapiens, UniProt P49841)
# Experiment: Kinase electrophoretic mobility shift assay, GSK-3 beta
# Format: biochemical
# Settings: compounds tested at 10 μM, average of n = 2, ATP at apparent Km; read-out: GSK-3 beta activity (percent inhibition)
# Protocol: as §1
# GSK-3 beta, sequence (P49841 whole entry, species assumed): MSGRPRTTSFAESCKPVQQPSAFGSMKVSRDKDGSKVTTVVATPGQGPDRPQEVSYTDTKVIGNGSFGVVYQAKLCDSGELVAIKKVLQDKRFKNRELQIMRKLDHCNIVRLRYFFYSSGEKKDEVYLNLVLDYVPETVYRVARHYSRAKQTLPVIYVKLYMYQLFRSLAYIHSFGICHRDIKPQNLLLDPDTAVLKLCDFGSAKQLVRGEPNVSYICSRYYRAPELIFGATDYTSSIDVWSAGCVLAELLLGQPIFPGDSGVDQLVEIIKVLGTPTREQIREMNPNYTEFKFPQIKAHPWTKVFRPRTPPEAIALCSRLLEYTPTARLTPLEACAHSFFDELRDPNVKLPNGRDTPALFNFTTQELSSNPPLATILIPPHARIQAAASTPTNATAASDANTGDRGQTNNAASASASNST
row,inhibition at 10 µM,SMILES
1,< 50%,Cc1ccccc1-c1c2n(c3nc(Nc4ccc(N5CCOCC5)cc4)ncc13)CCNC2=O [Compd 1]
2,< 50%,Cc1ccccc1-c1c2n(c3nc(N[C@H]4CC[C@H](O)CC4)ncc13)CCNC2=O [Compd 2]
3,71 to 90%,O=C1NCCn2c1cc1cnc(N[C@H]3CC[C@H](O)CC3)nc12 [Compd 3]
4,> 90%,CC1(C)CNC(=O)c2cc3cnc(N[C@H]4CC[C@H](O)CC4)nc3n21 [Compd 4]

# Target: FMS (Homo sapiens, UniProt P07333)
# Experiment: Kinase electrophoretic mobility shift assay, FMS
# Format: biochemical
# Settings: compounds tested at 10 μM, average of n = 2, ATP at apparent Km; read-out: FMS activity (percent inhibition)
# Protocol: as §1
# FMS, sequence (P07333 20-972, species assumed): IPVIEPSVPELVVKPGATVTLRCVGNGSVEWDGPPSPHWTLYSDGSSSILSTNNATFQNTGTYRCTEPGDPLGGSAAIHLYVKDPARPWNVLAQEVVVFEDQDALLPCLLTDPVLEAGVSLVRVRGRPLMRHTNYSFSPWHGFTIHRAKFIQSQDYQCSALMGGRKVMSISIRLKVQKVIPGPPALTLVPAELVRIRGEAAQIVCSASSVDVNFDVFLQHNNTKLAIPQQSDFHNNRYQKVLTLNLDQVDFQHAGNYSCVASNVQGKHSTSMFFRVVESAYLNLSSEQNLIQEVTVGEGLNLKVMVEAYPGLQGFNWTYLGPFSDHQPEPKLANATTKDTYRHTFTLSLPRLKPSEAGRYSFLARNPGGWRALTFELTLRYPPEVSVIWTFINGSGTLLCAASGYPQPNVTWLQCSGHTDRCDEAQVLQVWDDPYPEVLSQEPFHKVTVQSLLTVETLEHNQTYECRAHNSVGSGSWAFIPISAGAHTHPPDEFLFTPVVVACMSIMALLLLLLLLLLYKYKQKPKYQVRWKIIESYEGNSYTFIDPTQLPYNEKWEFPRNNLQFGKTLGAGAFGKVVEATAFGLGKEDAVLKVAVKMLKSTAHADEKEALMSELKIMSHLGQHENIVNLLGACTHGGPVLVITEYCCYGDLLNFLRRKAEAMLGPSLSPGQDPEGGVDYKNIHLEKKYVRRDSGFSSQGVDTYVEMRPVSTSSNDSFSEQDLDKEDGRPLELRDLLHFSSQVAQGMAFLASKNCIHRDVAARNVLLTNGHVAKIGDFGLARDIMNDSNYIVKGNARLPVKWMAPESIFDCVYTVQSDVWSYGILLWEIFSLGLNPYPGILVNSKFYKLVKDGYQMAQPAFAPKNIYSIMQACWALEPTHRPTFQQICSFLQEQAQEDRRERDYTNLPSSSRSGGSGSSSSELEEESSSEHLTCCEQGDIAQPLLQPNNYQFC
row,inhibition at 10 µM,SMILES
1,< 50%,Cc1ccccc1-c1c2n(c3nc(Nc4ccc(N5CCOCC5)cc4)ncc13)CCNC2=O [Compd 1]
2,< 50%,Cc1ccccc1-c1c2n(c3nc(N[C@H]4CC[C@H](O)CC4)ncc13)CCNC2=O [Compd 2]
3,< 50%,O=C1NCCn2c1cc1cnc(N[C@H]3CC[C@H](O)CC3)nc12 [Compd 3]
4,> 90%,CC1(C)CNC(=O)c2cc3cnc(N[C@H]4CC[C@H](O)CC4)nc3n21 [Compd 4]

# Target: P38 beta (Homo sapiens, UniProt Q15759)
# Experiment: Kinase electrophoretic mobility shift assay, P38 beta
# Format: biochemical
# Settings: compounds tested at 10 μM, average of n = 2, ATP at apparent Km; read-out: P38 beta activity (percent inhibition)
# Protocol: as §1
# P38 beta, sequence (Q15759 whole entry): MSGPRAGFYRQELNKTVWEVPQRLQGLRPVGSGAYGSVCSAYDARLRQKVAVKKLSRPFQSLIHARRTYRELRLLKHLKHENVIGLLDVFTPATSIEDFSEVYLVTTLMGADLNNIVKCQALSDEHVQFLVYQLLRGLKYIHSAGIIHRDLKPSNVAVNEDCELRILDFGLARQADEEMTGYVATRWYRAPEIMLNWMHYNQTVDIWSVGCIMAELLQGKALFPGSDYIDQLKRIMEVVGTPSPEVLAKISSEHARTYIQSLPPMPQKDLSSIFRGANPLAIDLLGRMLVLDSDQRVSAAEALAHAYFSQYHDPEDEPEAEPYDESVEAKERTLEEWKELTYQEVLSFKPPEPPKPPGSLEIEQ
row,inhibition at 10 µM,SMILES
1,< 50%,Cc1ccccc1-c1c2n(c3nc(Nc4ccc(N5CCOCC5)cc4)ncc13)CCNC2=O [Compd 1]
2,< 50%,Cc1ccccc1-c1c2n(c3nc(N[C@H]4CC[C@H](O)CC4)ncc13)CCNC2=O [Compd 2]
3,< 50%,O=C1NCCn2c1cc1cnc(N[C@H]3CC[C@H](O)CC3)nc12 [Compd 3]
4,50 to 70%,CC1(C)CNC(=O)c2cc3cnc(N[C@H]4CC[C@H](O)CC4)nc3n21 [Compd 4]

# Target: T2, DYRK3 (Homo sapiens, UniProt O43781)
# T2 sequence (O43781 1-588): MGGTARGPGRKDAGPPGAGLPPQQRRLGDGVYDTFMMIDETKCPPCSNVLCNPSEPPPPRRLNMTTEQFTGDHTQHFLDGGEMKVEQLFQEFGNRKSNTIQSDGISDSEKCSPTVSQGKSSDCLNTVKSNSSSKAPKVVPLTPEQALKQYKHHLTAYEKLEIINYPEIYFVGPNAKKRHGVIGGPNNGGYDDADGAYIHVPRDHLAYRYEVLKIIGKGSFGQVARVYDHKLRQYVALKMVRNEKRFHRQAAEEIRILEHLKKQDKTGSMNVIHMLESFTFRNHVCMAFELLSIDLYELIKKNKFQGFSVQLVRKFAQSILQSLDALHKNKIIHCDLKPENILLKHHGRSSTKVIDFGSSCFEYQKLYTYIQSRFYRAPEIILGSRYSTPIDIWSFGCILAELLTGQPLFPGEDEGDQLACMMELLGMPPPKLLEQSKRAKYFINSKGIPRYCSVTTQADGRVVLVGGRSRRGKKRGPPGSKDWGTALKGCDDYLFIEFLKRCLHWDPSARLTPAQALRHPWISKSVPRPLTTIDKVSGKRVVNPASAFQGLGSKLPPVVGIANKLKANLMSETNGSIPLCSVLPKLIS
# Experiment: Kinase electrophoretic mobility shift assay, DYRK3
# Format: biochemical
# Settings: compounds tested at 10 μM, average of n = 2, ATP at apparent Km; read-out: DYRK3 activity (percent inhibition)
# Protocol: as §1
row,inhibition at 10 µM,SMILES
1,< 50%,Cc1ccccc1-c1c2n(c3nc(Nc4ccc(N5CCOCC5)cc4)ncc13)CCNC2=O [Compd 1]
2,< 50%,Cc1ccccc1-c1c2n(c3nc(N[C@H]4CC[C@H](O)CC4)ncc13)CCNC2=O [Compd 2]
3,71 to 90%,O=C1NCCn2c1cc1cnc(N[C@H]3CC[C@H](O)CC3)nc12 [Compd 3]
4,71 to 90%,CC1(C)CNC(=O)c2cc3cnc(N[C@H]4CC[C@H](O)CC4)nc3n21 [Compd 4]

# Target: MAPK3 (Homo sapiens, UniProt P27361)
# Experiment: Kinase electrophoretic mobility shift assay, MAPK3
# Format: biochemical
# Settings: compounds tested at 10 μM, average of n = 2, ATP at apparent Km; read-out: MAPK3 activity (percent inhibition)
# Protocol: as §1
# MAPK3, sequence (P27361 whole entry): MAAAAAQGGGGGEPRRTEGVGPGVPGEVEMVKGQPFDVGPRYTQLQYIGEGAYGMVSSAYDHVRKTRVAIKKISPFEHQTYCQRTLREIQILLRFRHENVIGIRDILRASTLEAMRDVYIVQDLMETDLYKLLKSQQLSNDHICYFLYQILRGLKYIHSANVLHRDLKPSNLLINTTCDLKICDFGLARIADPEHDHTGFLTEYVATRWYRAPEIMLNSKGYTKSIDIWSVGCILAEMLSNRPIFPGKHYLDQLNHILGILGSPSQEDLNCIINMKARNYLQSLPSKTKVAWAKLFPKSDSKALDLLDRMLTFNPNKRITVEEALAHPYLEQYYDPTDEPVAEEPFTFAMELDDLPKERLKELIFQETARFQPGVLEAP
row,inhibition at 10 µM,SMILES
1,< 50%,Cc1ccccc1-c1c2n(c3nc(Nc4ccc(N5CCOCC5)cc4)ncc13)CCNC2=O [Compd 1]
2,50 to 70%,Cc1ccccc1-c1c2n(c3nc(N[C@H]4CC[C@H](O)CC4)ncc13)CCNC2=O [Compd 2]
3,71 to 90%,O=C1NCCn2c1cc1cnc(N[C@H]3CC[C@H](O)CC3)nc12 [Compd 3]
4,71 to 90%,CC1(C)CNC(=O)c2cc3cnc(N[C@H]4CC[C@H](O)CC4)nc3n21 [Compd 4]

# Target: T3, HIPK4 (Homo sapiens, UniProt Q8NE63)
# T3 sequence (Q8NE63 1-616): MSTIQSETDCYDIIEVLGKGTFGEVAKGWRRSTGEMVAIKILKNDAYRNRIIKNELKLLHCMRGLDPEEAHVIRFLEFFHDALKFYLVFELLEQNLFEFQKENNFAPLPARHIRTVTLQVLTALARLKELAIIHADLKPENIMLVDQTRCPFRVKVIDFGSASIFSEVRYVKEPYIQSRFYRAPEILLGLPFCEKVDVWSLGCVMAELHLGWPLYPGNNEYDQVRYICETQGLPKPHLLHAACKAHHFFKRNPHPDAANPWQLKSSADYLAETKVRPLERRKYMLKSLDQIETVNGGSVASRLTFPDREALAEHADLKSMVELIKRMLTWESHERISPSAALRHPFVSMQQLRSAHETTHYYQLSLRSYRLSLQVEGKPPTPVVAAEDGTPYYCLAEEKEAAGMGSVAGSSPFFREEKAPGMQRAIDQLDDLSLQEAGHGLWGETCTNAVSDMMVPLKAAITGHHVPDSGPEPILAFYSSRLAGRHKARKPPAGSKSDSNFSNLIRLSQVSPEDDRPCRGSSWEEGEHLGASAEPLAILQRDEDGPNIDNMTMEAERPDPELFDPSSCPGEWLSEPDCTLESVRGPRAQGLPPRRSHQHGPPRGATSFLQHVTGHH
# Experiment: Kinase electrophoretic mobility shift assay, HIPK4
# Format: biochemical
# Settings: compounds tested at 10 μM, average of n = 2, ATP at apparent Km; read-out: HIPK4 activity (percent inhibition)
# Protocol: as §1
row,inhibition at 10 µM,SMILES
1,< 50%,Cc1ccccc1-c1c2n(c3nc(Nc4ccc(N5CCOCC5)cc4)ncc13)CCNC2=O [Compd 1]
2,< 50%,Cc1ccccc1-c1c2n(c3nc(N[C@H]4CC[C@H](O)CC4)ncc13)CCNC2=O [Compd 2]
3,71 to 90%,O=C1NCCn2c1cc1cnc(N[C@H]3CC[C@H](O)CC3)nc12 [Compd 3]
4,> 90%,CC1(C)CNC(=O)c2cc3cnc(N[C@H]4CC[C@H](O)CC4)nc3n21 [Compd 4]

# Target: MNK2 (Homo sapiens, UniProt Q9HBH9)
# Experiment: Kinase electrophoretic mobility shift assay, MNK2
# Format: biochemical
# Settings: compounds tested at 10 μM, average of n = 2, ATP at apparent Km; read-out: MNK2 activity (percent inhibition)
# Protocol: as §1
# MNK2, sequence (Q9HBH9 whole entry, species assumed): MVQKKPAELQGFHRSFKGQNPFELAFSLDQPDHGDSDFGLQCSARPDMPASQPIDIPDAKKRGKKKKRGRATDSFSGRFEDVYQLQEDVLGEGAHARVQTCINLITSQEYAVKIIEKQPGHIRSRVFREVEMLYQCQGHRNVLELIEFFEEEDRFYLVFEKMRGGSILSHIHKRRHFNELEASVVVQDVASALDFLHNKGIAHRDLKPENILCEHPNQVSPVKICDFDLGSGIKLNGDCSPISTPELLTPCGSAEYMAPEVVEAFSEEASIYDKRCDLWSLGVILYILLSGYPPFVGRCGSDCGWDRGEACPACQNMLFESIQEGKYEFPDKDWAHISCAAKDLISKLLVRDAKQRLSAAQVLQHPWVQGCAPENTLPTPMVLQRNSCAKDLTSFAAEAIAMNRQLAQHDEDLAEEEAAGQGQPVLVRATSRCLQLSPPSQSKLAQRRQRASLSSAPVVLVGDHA
row,inhibition at 10 µM,SMILES
1,< 50%,Cc1ccccc1-c1c2n(c3nc(Nc4ccc(N5CCOCC5)cc4)ncc13)CCNC2=O [Compd 1]
2,< 50%,Cc1ccccc1-c1c2n(c3nc(N[C@H]4CC[C@H](O)CC4)ncc13)CCNC2=O [Compd 2]
3,< 50%,O=C1NCCn2c1cc1cnc(N[C@H]3CC[C@H](O)CC3)nc12 [Compd 3]
4,71 to 90%,CC1(C)CNC(=O)c2cc3cnc(N[C@H]4CC[C@H](O)CC4)nc3n21 [Compd 4]
